Results as given in patent US20250145594A1, “MODULATORS OF THE INTEGRATED STRESS PATHWAY” (Calico Life Sciences LLC, priority 2020, published 2025).

System: ATF4 luciferase reporter in HEK293T cells
Test: ATF4-Luc assay (in vitro model of VWMD)
Format: cell-based, human
Conditions: Homo sapiens, HEK-293T, 7 h, HEK293T cells carrying the ATF4 luciferase reporter, 1 μg/mL tunicamycin, One Glo luminescence
Protocol: In order to test exemplary compounds of the invention in a cellular context, a stable VWMD cell line was first constructed. The ATF4 reporter was prepared by fusing the human full-length ATF4 5′-UTR (NCBI Accession No. BC022088.2) in front of the firefly luciferase (FLuc) coding sequence lacking the initiator methionine as described in Sidrauski et al (eLife 2013). The construct was used to produce recombinant retroviruses using standard methods and the resulting viral supernatant was used to transduce HEK293T cells, which were then subsequently selected with puromycin to generate a stable cell line.
HEK293T cells carrying the ATF4 luciferase reporter were plated on polylysine coated 384-well plates (Greiner Bio-one) at 30,000 cells per well. Cells were treated the next day with 1 μg/mL tunicamycin and 200 nM of a compound of Formula (I) for 7 hours. Luminescence was measured using One Glo (Promega) as specified by the manufacturer. Cells were maintained in DMEM with L-glutamine supplemented with 10% heat-inactivated FBS (Gibco) and Antibiotic-Antimycotic solution (Gibco).
Table 4 below summarizes the EC50 data obtained using the ATF4-Luc assay for exemplary compounds of the invention.

SMILES | EC50 [nM]
O=C(NC12CC(n3cc(-c4ccc(C(F)(F)F)cn4)cn3)(C1)C2)C1CNc2cc(Cl)c(F)cc2O1 (centres unmarked) [Compound 574, 6-chloro-7-fluoro-N-(3-{4-[5-(trifluoromethyl)pyridin-2-yl]-1H-pyrazol-1-yl}bicyclo[1.1.1]pentan-1-yl)-3,4-dihydro-2H-1,4-benzoxazine-2-carboxamide] | < 10
COc1cc2cn(C34CC(NC(=O)[C@H]5C[C@@H](O)c6cc(Cl)c(Cl)cc6O5)(C3)C4)nc2cn1 [Compound 503, (2R,4R)-6,7-dichloro-4-hydroxy-N-[3-(5-methoxy-2H-pyrazolo[3,4-c]pyridin-2-yl)bicyclo[1.1.1]pentan-1-yl]-3,4-dihydro-2H-1-benzopyran-2-carboxamide] | < 10
O=C(NC12CC(n3cc(CN4CC[C@H](OC(F)(F)F)C4)cn3)(C1)C2)[C@H]1C[C@@H](O)c2cc(Cl)ccc2O1 [Compound 339, (2R,4R)-6-chloro-4-hydroxy-N-[3-(4-{[(3S)-3-(trifluoromethoxy)pyrrolidin-1-yl]methyl}-1H-pyrazol-1-yl)bicyclo[1.1.1]pentan-1-yl]-3,4-dihydro-2H-1-benzopyran-2-carboxamide] | 250 to 500
C[C@H](COC(F)(F)F)Oc1cnn(C23CC(NC(=O)[C@H]4C[C@@H](O)c5cc(Cl)ccc5O4)(C2)C3)c1 [Compound 440, (2R,4R)-6-chloro-4-hydroxy-N-[3-(4-{[(2R)-1-(trifluoromethoxy)propan-2-yl]oxy}-1H-pyrazol-1-yl)bicyclo[1.1.1]pentan-1-yl]-3,4-dihydro-2H-1-benzopyran-2-carboxamide] | 10 to 50
O=C(NC12CC(n3cc(-c4ccc(OC(F)(F)F)cn4)cn3)(C1)C2)[C@H]1C[C@@H](O)c2cc(F)ccc2O1 (racemic) [Compound 552, rac-(2R,4R)-6-fluoro-4-hydroxy-N-(3-{4-[5-(trifluoromethoxy)pyridin-2-yl]-1H-pyrazol-1-yl}bicyclo[1.1.1]pentan-1-yl)-3,4-dihydro-2H-1-benzopyran-2-carboxamide] | < 10
O=C1CC(C(=O)NC23CC(c4nnc([C@H]5C[C@@H](OC(F)(F)F)C5)o4)(C2)C3)Oc2ccc(Cl)cc21 (some centres unmarked) [Compound 151, 6-chloro-4-oxo-N-(3-{5-[(1s,3s)-3-(trifluoromethoxy)cyclobutyl]-1,3,4-oxadiazol-2-yl}bicyclo[1.1.1]pentan-1-yl)-3,4-dihydro-2H-1-benzopyran-2-carboxamide] | 50 to 250
O=C(NC12CC(n3cnc(-c4ccc(Cl)cc4F)c3)(C1)C2)[C@H]1C[C@@H](O)c2cc(Cl)ccc2O1 [Compound 343, (2R,4R)-6-chloro-N-{3-[4-(4-chloro-2-fluorophenyl)-1H-imidazol-1-yl]bicyclo[1.1.1]pentan-1-yl}-4-hydroxy-3,4-dihydro-2H-1-benzopyran-2-carboxamide] | < 10
COc1ccc2cn(C34CC(NC(=O)[C@H]5C[C@@H](O)c6cc(Cl)ccc6O5)(C3)C4)nc2c1 [Compound 500, (2R,4R)-6-chloro-4-hydroxy-N-[3-(6-methoxy-2H-indazol-2-yl)bicyclo[1.1.1]pentan-1-yl]-3,4-dihydro-2H-1-benzopyran-2-carboxamide] | 10 to 50
O=C(NC12CC(n3cnc(C(=O)N4CC(OC(F)(F)F)C4)c3)(C1)C2)[C@H]1C[C@@H](O)c2cc(Cl)ccc2O1 [Compound 395, (2R,4R)-6-chloro-4-hydroxy-N-(3-{4-[3-(trifluoromethoxy)azetidine-1-carbonyl]-1H-imidazol-1-yl}bicyclo[1.1.1]pentan-1-yl)-3,4-dihydro-2H-1-benzopyran-2-carboxamide] | 10 to 50
COc1ccc2nn([C@H]3CC[C@H](NC(=O)[C@H]4C[C@@H](O)c5cc(Cl)ccc5O4)CC3)cc2n1 [Compound 508, (2R,4R)-6-chloro-4-hydroxy-N-[(1r,4R)-4-(5-methoxy-2H-pyrazolo[4,3-b]pyridin-2-yl)cyclohexyl]-3,4-dihydro-2H-1-benzopyran-2-carboxamide] | 10 to 50
O=C(NC12CC(OCC(=O)N3CC(COC(F)(F)F)C3)(C1)C2)[C@H]1C[C@@H](O)c2cc(Cl)ccc2O1 [Compound 335, (2R,4R)-6-chloro-4-hydroxy-N-[3-(2-oxo-2-{3-[(trifluoromethoxy)methyl]azetidin-1-yl}ethoxy)bicyclo[1.1.1]pentan-1-yl]-3,4-dihydro-2H-1-benzopyran-2-carboxamide] | 50 to 250
O=C(NC12CC(n3cc(-c4ccc(OC(F)(F)F)cn4)cn3)(C1)C2)[C@@H]1C[C@@H](O)c2cc(C(F)(F)F)ccc2O1 [Compound 550, (2S,4R)-4-hydroxy-N-(3-{4-[5-(trifluoromethoxy)pyridin-2-yl]-1H-pyrazol-1-yl}bicyclo[1.1.1]pentan-1-yl)-6-(trifluoromethyl)-3,4-dihydro-2H-1-benzopyran-2-carboxamide] | < 10
O=C(NC12CC(c3ccc(-n4cnc(C(F)(F)F)c4)nc3)(C1)C2)[C@H]1C[C@@H](O)c2cc(Cl)c(F)cc2O1 [Compound 480, (2R,4R)-6-chloro-7-fluoro-4-hydroxy-N-(3-{6-[4-(trifluoromethyl)-1H-imidazol-1-yl]pyridin-3-yl}bicyclo[1.1.1]pentan-1-yl)-3,4-dihydro-2H-1-benzopyran-2-carboxamide] | < 10
O=C(NC12CC(n3cc(CCCOC(F)(F)F)nn3)(C1)C2)[C@H]1C[C@@H](O)c2cc(Cl)ccc2O1 [Compound 516, (2R,4R)-6-chloro-4-hydroxy-N-(3-{4-[3-(trifluoromethoxy)propyl]-1H-1,2,3-triazol-1-yl}bicyclo[1.1.1]pentan-1-yl)-3,4-dihydro-2H-1-benzopyran-2-carboxamide] | < 10
O=C(NC12CC(n3cc(-c4cnn(C(F)(F)F)c4)cn3)(C1)C2)[C@H]1C[C@@H](O)c2cc(Cl)c(F)cc2O1 [Compound 479, (2R,4R)-6-chloro-7-fluoro-4-hydroxy-N-{3-[1′-(trifluoromethyl)-1H,1′H-[4,4′-bipyrazol]-1-yl]bicyclo[1.1.1]pentan-1-yl}-3,4-dihydro-2H-1-benzopyran-2-carboxamide] | < 10
O=C(CO[C@H]1C[C@@H](OC(F)(F)F)C1)N[C@@H]1C[C@@H]2C[C@H]1C[C@H]2NC(=O)[C@H]1C[C@@H](O)c2cc(C(F)(F)F)c(F)cc2O1 [Compound 645, (2R,4R)-7-fluoro-4-hydroxy-N-[(1S,2R,4S,5R)-5-(2-{[(1s,3S)-3-(trifluoromethoxy)cyclobutyl]oxy}acetamido)bicyclo[2.2.1]heptan-2-yl]-6-(trifluoromethyl)-3,4-dihydro-2H-1-benzopyran-2-carboxamide] | < 10
O=C(NC12CC(n3cc(-c4ccn(C(F)(F)F)n4)cn3)(C1)C2)[C@H]1C[C@@H](O)c2cc(Cl)c(F)cc2O1 [Compound 562, (2R,4R)-6-chloro-7-fluoro-4-hydroxy-N-{3-[1-(trifluoromethyl)-1H,1′H-[3,4‘-bipyrazol]-1’-yl]bicyclo[1.1.1]pentan-1-yl}-3,4-dihydro-2H-1-benzopyran-2-carboxamide] | < 10
O=C(N[C@H]1CC[C@H](n2cc(OCCOC(F)(F)F)cn2)CC1)[C@H]1C[C@H](O)c2cc(Cl)ccc2O1 [Compound 447, (2R,4S)-6-chloro-4-hydroxy-N-[(1r,4R)-4-{4-[2-(trifluoromethoxy)ethoxy]-1H-pyrazol-1-yl}cyclohexyl]-3,4-dihydro-2H-1-benzopyran-2-carboxamide] | 50 to 250
O=C(NC12CC(c3cnn([C@H]4C[C@@H](OC(F)(F)F)C4)c3)(C1)C2)[C@H]1C[C@@H](O)c2cc(Cl)ccc2O1 [Compound 316, (2R,4R)-6-chloro-4-hydroxy-N-(3-{1-[cis-3-(trifluoromethoxy)cyclobutyl]-1H-pyrazol-4-yl}bicyclo[1.1.1]pentan-1-yl)-3,4-dihydro-2H-1-benzopyran-2-carboxamide] | < 10
O=C(NC12CC(n3cc(COCCOC(F)(F)F)nn3)(C1)C2)[C@H]1C[C@@H](O)c2cc(Cl)ccc2O1 [Compound 522, (2R,4R)-6-chloro-4-hydroxy-N-[3-(4-{[2-(trifluoromethoxy)ethoxy]methyl}-1H-1,2,3-triazol-1-yl)bicyclo[1.1.1]pentan-1-yl]-3,4-dihydro-2H-1-benzopyran-2-carboxamide] | < 10
O=C(NC12CC(c3ccc(OCCOC(F)(F)F)nc3)(C1)C2)[C@H]1C[C@@H](O)c2cc(Cl)c(F)cc2O1 [Compound 446, (2R,4R)-6-chloro-7-fluoro-4-hydroxy-N-(3-{6-[2-(trifluoromethoxy)ethoxy]pyridin-3-yl}bicyclo[1.1.1]pentan-1-yl)-3,4-dihydro-2H-1-benzopyran-2-carboxamide] | 10 to 50
O=C(COc1ccc(Cl)c(F)c1)NC12CC(n3cc([C@H]4C[C@@H](OC(F)(F)F)C4)nn3)(C1)C2 [Compound 620, 2-(4-chloro-3-fluorophenoxy)-N-(3-{4-[(1s,3s)-3-(trifluoromethoxy)cyclobutyl]-1H-1,2,3-triazol-1-yl}bicyclo[1.1.1]pentan-1-yl)acetamide] | < 10
O=C(NC12CC(c3cnc(OCCOC(F)(F)F)o3)(C1)C2)[C@H]1C[C@@H](O)c2cc(Cl)c(F)cc2O1 [Compound 416, (2R,4R)-6-chloro-7-fluoro-4-hydroxy-N-(3-{2-[2-(trifluoromethoxy)ethoxy]-1,3-oxazol-5-yl}bicyclo[1.1.1]pentan-1-yl)-3,4-dihydro-2H-1-benzopyran-2-carboxamide] | < 10
